According to PubChem BioAssay (NCI):
Values joined by “and” are separate entries in the source; they are usually repeats but may differ in a detail not shown here. Identical values can stand only once.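 Following 48 hours of exposure in 96-well plates, responses at five concentrations were used to interpolate endpoints linearly. GI50 is the concentration that inhibits growth by half. The concentration for full growth arrest is given as TGI.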

Experiments:
Test in all cases: inhibition of tumour cell growth, NCI panel, 48 h
IGROV1 ovarian = tested on: IGROV1 ovarian
MALME-3M melanoma = tested on: MALME-3M melanoma
NCI/ADR-RES ovarian = tested on: NCI/ADR-RES ovarian
OVCAR-5 ovarian = tested on: OVCAR-5 ovarian
NCI-H23 lung = tested on: NCI-H23 lung
SF-268 CNS = tested on: SF-268 CNS
786-0 renal = tested on: 786-0 renal
T-47D breast = tested on: T-47D breast
HCC-2998 colon = tested on: HCC-2998 colon
U251 CNS = tested on: U251 CNS

SMILES | GI50 (IGROV1 ovarian) | TGI (IGROV1 ovarian) | GI50 (MALME-3M melanoma) | TGI (MALME-3M melanoma) | GI50 (NCI/ADR-RES ovarian) | TGI (NCI/ADR-RES ovarian) | GI50 (OVCAR-5 ovarian) | TGI (OVCAR-5 ovarian) | GI50 (NCI-H23 lung) | TGI (NCI-H23 lung) | GI50 (SF-268 CNS) | TGI (SF-268 CNS) | GI50 (786-0 renal) | TGI (786-0 renal) | GI50 (T-47D breast) | TGI (T-47D breast) | GI50 (HCC-2998 colon) | TGI (HCC-2998 colon) | GI50 (U251 CNS) | TGI (U251 CNS)
CC(=O)Oc1ccc(C2(c3ccc(OC(C)=O)cc3)C(=O)Nc3ccccc32)cc1 | 11.2 µM and 16.8 µM | 81.3 µM and > 100 µM | 64.5 µM and > 100 µM | > 100 µM | 1.16 µM and 1.8 µM | > 100 µM | > 70.8 µM | > 100 µM | 9.3 µM and 19.3 µM | > 100 µM | 38.5 µM and 32.8 µM | > 100 µM | 42.6 µM and 46.6 µM | > 100 µM | 0.031 µM and 0.0327 µM | 0.112 µM and 0.129 µM | 29.7 µM and 23.1 µM | > 100 µM | 33.6 µM and 41.4 µM | > 100 µM
COc1ccc2cc(-c3c(-c4ccncc4)nc(-c4ccc(S(C)=O)cc4C)n3C)ccc2c1 (stereo not drawn) | 11.1 µM | > 25 µM | 7.04 µM | > 25 µM | 24.3 µM | > 25 µM | > 25 µM | > 25 µM | > 25 µM | > 25 µM | > 25 µM | > 25 µM | 24.3 µM | > 25 µM | 8.78 µM | > 25 µM | > 25 µM | > 25 µM | > 23.2 µM | > 25 µM
COc1cc([C@H]2c3[nH]c4ccccc4c3C[C@H]3COC(=O)N32)cc(OC)c1O |  | > 86.3 µM |  | > 100 µM |  | > 100 µM |  | > 100 µM |  | 17.1 µM |  | > 72.1 µM |  | 10.7 µM |  | > 100 µM |  | 27 µM |  | 19 µM
C/C(=N\n1c(N)c(C#N)c(-c2ccc(Cl)cc2)c(C#N)c1=O)c1ccncc1 | 5.02 µM | > 100 µM | 7.54 µM | > 100 µM | 5.28 µM | 31.3 µM | 60.4 µM | > 100 µM | 11 µM | 45.7 µM | 9.83 µM | 61.4 µM | 6.95 µM | 34 µM | 7.81 µM | 85.3 µM | > 100 µM | > 100 µM | 19.6 µM | 44.6 µM
Cn1cnc([N+](=O)[O-])c1Sc1nc(N)nc2nc[nH]c12 | 14 µM | > 100 µM | 13 µM | > 100 µM | 2.17 µM | > 100 µM | 4.48 µM | > 100 µM | 5.61 µM | > 100 µM | 2.39 µM | > 100 µM | 2.04 µM | > 100 µM | 8.57 µM | > 100 µM | 3.79 µM | > 66.3 µM | 23 µM | > 100 µM
COc1ccc(-c2nc3c(c(=O)n2C(C)=O)C(c2ccc(Cl)cc2)c2sc4c(Cl)cccc4c2O3)cc1 (stereo not drawn) | 0.512 µM | 3.12 µM | 0.409 µM | 2.62 µM | 0.187 µM | 0.919 µM | 1.2 µM | 3.4 µM | 0.343 µM | 2.09 µM | 0.68 µM | 3.82 µM | 0.43 µM | 1.63 µM | 0.326 µM | 2.2 µM | 0.68 µM | 2.48 µM | 0.483 µM | 1.76 µM
CC[C@H](C)[C@H](NC(=O)[C@H]1CCCCN1C)C(=O)N(C)[C@H](C[C@@H](OC(C)=O)c1nc(C(=O)N[C@@H](Cc2ccccc2)C[C@H](C)C(=O)OC)cs1)C(C)C | 0.002 µM and 0.0025 µM | > 25 µM | 0.442 µM | > 25 µM | 0.00772 µM |  | 0.000583 µM and 0.0025 µM | > 25 µM | 0.00071 µM and 0.0025 µM | > 25 µM | 0.000466 µM and 0.0025 µM | > 25 µM | 0.000366 µM and 0.0025 µM | 14.8 µM | 11.8 µM | > 25 µM | 0.00032 µM and 0.0025 µM | > 25 µM | 0.000376 µM and 0.0025 µM | > 25 µM
Cc1n(Cc2ccc3ccccc3c2)c(Cl)c(Cl)[n+]1Cc1ccc2ccccc2c1 | 1.39 µM | 2.81 µM | 1.54 µM | 3.46 µM | 12 µM | 29.6 µM | 1.65 µM | 3.89 µM | 1.66 µM | 3.86 µM | 1.67 µM | 3.29 µM | 1.71 µM | 3.14 µM | 2.05 µM | 6.44 µM | 1.66 µM | 3.14 µM | 1.79 µM | 3.6 µM
O=c1[nH]c2cc(Cl)c(Cl)cc2n2cc3ccccc3c12 | 17.4 µM | 31.2 µM | 17.1 µM | 32.7 µM | 17.7 µM | 31.6 µM | 17.1 µM | 30.8 µM | 17.2 µM | 30.9 µM | 23.7 µM | 42.6 µM | 24.9 µM | 39.6 µM | 30.8 µM | 75.5 µM | 0.813 µM | 18.6 µM | 16.4 µM | 30 µM
CCN(CC)CCOc1ccc(/C=C2\CC3C4CC=C5C[C@@H](OC(C)=O)CC[C@]5(C)C4CC[C@]3(C)C2=O)cc1OC (stereo partly drawn) | 4.65 µM | 16.4 µM | 1.96 µM | 3.47 µM | 5.08 µM | > 100 µM | 3.38 µM | 12.4 µM | 12.4 µM | 49.5 µM | 4.14 µM | 18.4 µM | 2.03 µM | 4.29 µM | 38.2 µM | > 100 µM | 3.74 µM | 14.1 µM | 11.4 µM | 25.8 µM
CN(C)C/C=C/C(=O)Nc1ccc(C(=O)N2CCC[C@@H](Nc3ncc(Cl)c(-c4c[nH]c5ccccc45)n3)C2)cc1 | 0.149 µM | 11.3 µM | 0.0372 µM | 0.315 µM | 32.8 µM | > 100 µM | 0.328 µM | 11.6 µM | 0.189 µM | 0.783 µM | 0.125 µM | 1.78 µM | 1.96 µM | 8.38 µM | 0.0427 µM | 4.27 µM | 0.107 µM | 1.2 µM | 0.306 µM | 10 µM
COc1ccc(C(=O)C[C@]2(O)C(=O)Nc3c(Cl)ccc(Cl)c32)cc1 | 0.531 µM | > 100 µM | 0.503 µM | > 100 µM | 0.379 µM |  | 2.43 µM | > 100 µM | 1.51 µM | > 100 µM | 1.33 µM | > 77.8 µM | 2.61 µM | > 100 µM | 0.498 µM | > 100 µM | 1.96 µM | > 100 µM | 0.508 µM | > 100 µM
CN(C)CCCC1(c2ccc(F)cc2)OCc2cc(-c3cncc4ccccc34)ccc21 (stereo not drawn) | 2.88 µM | 12.2 µM | 1.55 µM | 3.09 µM | 4.89 µM | 18.8 µM | 5.23 µM | 18.3 µM | 5.73 µM | 20.1 µM | 3.15 µM | 13.9 µM | 2.71 µM | 9.72 µM | 2.43 µM | 7.28 µM | 1.84 µM | 3.71 µM | 2.22 µM | 5.7 µM
COc1ccc(-c2cc(/C=C/C(=O)c3cc(OC)c(OC)c(OC)c3)[nH]n2)cc1OC | 2.72 µM | 8.61 µM | 2.32 µM | 6.19 µM | 2.69 µM | 37 µM | 1.76 µM | 4.31 µM | 1.97 µM | 4.91 µM | 1.68 µM | 3.9 µM | 1.5 µM | 2.9 µM | 1.01 µM | 3.76 µM | 1.9 µM | 3.4 µM | 1.24 µM | 2.53 µM
O=C(Nc1ccccc1O)c1ccc(CNC(=O)c2ccsc2Nc2ccnc(C(F)(F)F)c2)cc1 | 2.8 µM | 13.5 µM | 1.7 µM | 6.65 µM | 2.23 µM | 8.52 µM | 2.05 µM | 14.7 µM | 1.72 µM | 4.88 µM | 2.69 µM | 15.1 µM | 2.29 µM | 5.34 µM | 2.71 µM | > 100 µM | 1.84 µM | 4.33 µM | 1.65 µM | 5.07 µM
O=C(CCN1CCCC1)Nc1ccc2c(Nc3ccccc3)c3ccccc3nc2c1 | 0.474 µM | 3.02 µM | 1.46 µM | 2.83 µM | 1.84 µM | 7.22 µM | 1.52 µM | 4.4 µM | 0.383 µM | 2 µM | 0.677 µM | 2.3 µM | 0.467 µM | 1.93 µM | 0.399 µM | 2.76 µM | 0.733 µM | 2.29 µM | 0.429 µM | 2.19 µM
Cc1cc(NC(=O)NC(=O)c2ccccc2N(C)C)ccc1Oc1ncc(Br)cn1 | 0.356 µM | > 63.1 µM | 2.22 µM | > 100 µM |  | 24.6 µM | 2.61 µM | > 67.5 µM | 2.51 µM | 53.4 µM |  | > 68.1 µM | 0.322 µM | 44.6 µM |  | > 56.2 µM | 1.1 µM | 11.8 µM | 0.436 µM | 39.8 µM
O=C(/C=C/c1cn(-c2ccccc2)nc1-c1ccc([N+](=O)[O-])cc1)c1ccc(Cl)cc1 | 3.54 µM | > 100 µM | 2.44 µM | 6.59 µM | 3.86 µM | > 100 µM | > 100 µM | > 100 µM | 3.67 µM | > 100 µM | 2.78 µM | > 100 µM | 3.94 µM | 55.3 µM | 1.22 µM | > 100 µM | > 100 µM | > 100 µM |  | 
